Experimental data from ChEMBL document CHEMBL4321885, “Biomimetic Macrocyclic Inhibitors of Human Cathepsin D: Structure-Activity Relationship and Binding Mode Analysis” (J Med Chem, 2020).
Calls of active or inactive are those of the source.

What was measured:
Sus scrofa = species on record: Sus scrofa; assay: Inhibition of porcine pepsin at 50 nM using Abz-Lys-Pro-Ala-Glu-Phe-Nph-Ala-Leu as substrate preincubated for 10 mins followed by substrate addition and measured by FRET assay
[1] = biological target: Beta-secretase 1 (Homo sapiens) (UniProt P56817); assay: Inhibition of recombinant human C-terminal 10His-tagged BACE1 expressed in mouse NS0 cells at 5 uM using Mca-Ser-Glu-Val-Asn-Leu-Asp-Ala-Glu-Phe-Arg-Lys(Dnp)-Arg-Arg as substrate preincubated for 10 mins followed by substrate addition and measured by FRET assay
[2] = biological target: Saccharopepsin (Saccharomyces cerevisiae S288c) (UniProt P07267); assay: Inhibition of Baker's yeast proteinase A at 50 nM using Abz-Lys-Pro-Ala-Glu-Phe-Nph-Ala-Leu as substrate preincubated for 10 mins followed by substrate addition and measured by FRET assay
Renin (Homo sapiens) [3] = biological target: T1, Renin (Homo sapiens) (UniProt P00797); assay: Inhibition of recombinant human N-terminal FLAG-tagged renin (67 to 406 residues) expressed in HEK cells at 5 uM using Arg-Glu(EDANS)-Ile-His-Pro-Phe-His-Leu-Val-Ile-His-Thr-Lys(Dabcyl)-Arg as substrate preincubated for 10 mins followed by substrate addition and measured by FRET assay
T1 sequence (whole entry): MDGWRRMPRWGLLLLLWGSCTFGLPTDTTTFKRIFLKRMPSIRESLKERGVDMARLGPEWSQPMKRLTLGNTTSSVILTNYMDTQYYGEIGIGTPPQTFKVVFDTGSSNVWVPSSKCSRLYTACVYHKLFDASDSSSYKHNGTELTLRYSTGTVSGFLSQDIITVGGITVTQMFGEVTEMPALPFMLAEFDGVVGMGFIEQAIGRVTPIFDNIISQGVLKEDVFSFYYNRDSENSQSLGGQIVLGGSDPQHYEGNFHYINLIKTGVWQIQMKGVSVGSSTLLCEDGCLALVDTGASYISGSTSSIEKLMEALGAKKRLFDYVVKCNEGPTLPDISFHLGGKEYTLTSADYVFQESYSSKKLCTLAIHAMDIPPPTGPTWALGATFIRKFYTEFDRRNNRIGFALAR

[4] = biological target: Beta-secretase 1 (Homo sapiens) (UniProt P56817); assay: Inhibition of recombinant human C-terminal 10His-tagged BACE1 expressed in mouse NS0 cells at 50 nM using Mca-Ser-Glu-Val-Asn-Leu-Asp-Ala-Glu-Phe-Arg-Lys(Dnp)-Arg-Arg as substrate preincubated for 10 mins followed by substrate addition and measured by FRET assay
Cathepsin D = Cathepsin D (Homo sapiens, UniProt P07339); assay: Inhibition of human placenta CatD using Abz-Lys-Pro-Ala-Glu-Phe-Nph-Ala-Leu as substrate preincubated for 10 mins followed by substrate addition and measured by FRET assay
[5] = biological target: Protease (Human immunodeficiency virus 1) (UniProt Q9YQ12); assay: Inhibition of HIV1 protease at 50 nM using Abz-Tyr-Ile-Nle-Nph-Gln-Arg as substrate preincubated for 10 mins followed by substrate addition and measured by FRET assay
[6] = biological target: Protease (Human immunodeficiency virus 1) (UniProt Q9YQ12); assay: Inhibition of HIV1 protease at 5 uM using Abz-Tyr-Ile-Nle-Nph-Gln-Arg as substrate preincubated for 10 mins followed by substrate addition and measured by FRET assay
Renin (Homo sapiens) [7] = biological target: T1, Renin (Homo sapiens); assay: Inhibition of recombinant human N-terminal FLAG-tagged renin (67 to 406 residues) expressed in HEK cells at 50 nM using Arg-Glu(EDANS)-Ile-His-Pro-Phe-His-Leu-Val-Ile-His-Thr-Lys(Dabcyl)-Arg as substrate preincubated for 10 mins followed by substrate addition and measured by FRET assay
Ixodes ricinus = assay: Inhibition of Ixodes ricinus CatD expressed in Escherichia coli BL21(DE3) at 50 nM using Abz-Lys-Pro-Ala-Glu-Phe-Nph-Ala-Leu as substrate preincubated for 10 mins followed by substrate addition and measured by FRET assay

Sequence of Protease (Human immunodeficiency virus 1) (Q9YQ12 as listed by the source): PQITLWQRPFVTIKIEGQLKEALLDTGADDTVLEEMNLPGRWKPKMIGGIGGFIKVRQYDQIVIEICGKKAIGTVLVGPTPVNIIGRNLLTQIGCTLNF
Sequence of Saccharopepsin (Saccharomyces cerevisiae S288c) (P07267 whole entry, the tested form may be a part): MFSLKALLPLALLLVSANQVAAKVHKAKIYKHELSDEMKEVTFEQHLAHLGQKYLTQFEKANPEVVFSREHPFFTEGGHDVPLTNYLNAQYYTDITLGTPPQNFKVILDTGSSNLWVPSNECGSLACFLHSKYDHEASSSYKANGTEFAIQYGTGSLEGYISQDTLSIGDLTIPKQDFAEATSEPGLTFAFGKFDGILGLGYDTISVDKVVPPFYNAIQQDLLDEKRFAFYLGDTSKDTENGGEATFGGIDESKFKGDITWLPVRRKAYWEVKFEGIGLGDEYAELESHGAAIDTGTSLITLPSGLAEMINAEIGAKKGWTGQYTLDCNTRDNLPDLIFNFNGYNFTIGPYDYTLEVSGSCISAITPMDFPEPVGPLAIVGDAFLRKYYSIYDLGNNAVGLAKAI
Sequence of Beta-secretase 1 (Homo sapiens) (P56817 whole entry): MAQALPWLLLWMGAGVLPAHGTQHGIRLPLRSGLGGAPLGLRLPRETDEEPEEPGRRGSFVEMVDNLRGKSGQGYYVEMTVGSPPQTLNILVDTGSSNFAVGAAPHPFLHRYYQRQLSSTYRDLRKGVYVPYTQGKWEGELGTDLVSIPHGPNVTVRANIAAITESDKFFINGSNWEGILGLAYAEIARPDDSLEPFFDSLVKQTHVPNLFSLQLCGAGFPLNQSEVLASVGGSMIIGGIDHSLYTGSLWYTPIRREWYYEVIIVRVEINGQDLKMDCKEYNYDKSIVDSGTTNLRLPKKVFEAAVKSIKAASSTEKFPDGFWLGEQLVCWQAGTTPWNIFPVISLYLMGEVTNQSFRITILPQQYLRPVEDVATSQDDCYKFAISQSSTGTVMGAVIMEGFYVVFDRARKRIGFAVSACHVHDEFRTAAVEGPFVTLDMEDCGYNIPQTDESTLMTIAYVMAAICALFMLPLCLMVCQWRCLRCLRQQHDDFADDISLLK
Sequence of Cathepsin D (P07339 65-162 limits assumed): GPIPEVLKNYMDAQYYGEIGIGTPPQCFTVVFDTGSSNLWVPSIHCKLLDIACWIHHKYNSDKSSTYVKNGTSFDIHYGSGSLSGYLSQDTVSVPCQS
Sequence of Cathepsin D (P07339 169-412 limits assumed): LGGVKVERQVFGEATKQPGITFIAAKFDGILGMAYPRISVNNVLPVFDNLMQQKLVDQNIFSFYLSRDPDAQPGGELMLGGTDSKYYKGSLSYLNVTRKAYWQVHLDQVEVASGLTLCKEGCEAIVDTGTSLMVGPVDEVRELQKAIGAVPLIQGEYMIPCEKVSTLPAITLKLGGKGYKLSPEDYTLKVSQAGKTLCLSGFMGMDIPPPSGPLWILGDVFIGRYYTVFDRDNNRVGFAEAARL

O=C1C[C@H](O)[C@H](Cc2ccccc2)NC(=O)CCCCCCCCCCCNC(=O)[C@H](Cc2ccccc2)N1
15 nM: IC50 (Cathepsin D)
inactive: inhibition [4] | inhibition [5] | inhibition (Renin (Homo sapiens) [7])
active: inhibition (Sus scrofa) | inhibition [1] | inhibition [2] | inhibition (Renin (Homo sapiens) [3]) | inhibition [6] | inhibition (Ixodes ricinus)

CC(C)C[C@@H]1NC(=O)CCCCCCCCCCCNC(=O)[C@H](C(C)C)NC(=O)C[C@@H]1O
22 nM: IC50 (Cathepsin D)
active: inhibition (Sus scrofa) | inhibition [1] | inhibition [2] | inhibition (Renin (Homo sapiens) [3]) | inhibition [6] | inhibition (Ixodes ricinus)
inactive: inhibition [4] | inhibition [5] | inhibition (Renin (Homo sapiens) [7])

CC(=O)NCCCC[C@@H]1NC(=O)C[C@H](O)[C@H](Cc2ccccc2)NC(=O)CCCCCCCCCCCNC1=O
inactive: inhibition [4] | inhibition [5] | inhibition (Renin (Homo sapiens) [7])
active: inhibition (Sus scrofa) | inhibition [1] | inhibition [2] | inhibition (Renin (Homo sapiens) [3]) | inhibition [6] | inhibition (Ixodes ricinus)
16 nM: IC50 (Cathepsin D)

CC(C)[C@@H]1NC(=O)C[C@H](O)[C@H](Cc2ccccc2)NC(=O)CCCCCCCCCCCCCNC1=O
active: inhibition (Sus scrofa) | inhibition [1] | inhibition [2] | inhibition (Renin (Homo sapiens) [3]) | inhibition [6] | inhibition (Ixodes ricinus)
11 nM: IC50 (Cathepsin D)
inactive: inhibition [4] | inhibition [5] | inhibition (Renin (Homo sapiens) [7])

CC(C)[C@@H]1NC(=O)C[C@H](O)[C@H](Cc2c[nH]c3ccccc23)NC(=O)CCCCCCCCCCCNC1=O
190 nM: IC50 (Cathepsin D)
inactive: inhibition [4] | inhibition [5] | inhibition (Renin (Homo sapiens) [7])
active: inhibition (Sus scrofa) | inhibition [1] | inhibition [2] | inhibition (Renin (Homo sapiens) [3]) | inhibition [6] | inhibition (Ixodes ricinus)

CC(C)[C@@H]1NC(=O)C[C@H](O)[C@H](CC2CCCCC2)NC(=O)CCCCCCCCCCCNC1=O
active: inhibition (Sus scrofa) | inhibition [1] | inhibition [2] | inhibition (Renin (Homo sapiens) [3]) | inhibition [6] | inhibition (Ixodes ricinus)
inactive: inhibition [4] | inhibition [5] | inhibition (Renin (Homo sapiens) [7])
9 nM: IC50 (Cathepsin D)

CC(C)[C@@H]1NC(=O)C[C@H](O)[C@H](Cc2ccc(F)c(F)c2)NC(=O)CCCCCCCCCCCNC1=O
inactive: inhibition [4] | inhibition [5] | inhibition (Renin (Homo sapiens) [7])
active: inhibition [1] | inhibition [2] | inhibition (Renin (Homo sapiens) [3]) | inhibition [6] | inhibition (Ixodes ricinus)
3.1 nM: IC50 (Cathepsin D)

CC(C)[C@@H]1NC(=O)C[C@H](O)[C@H](Cc2ccc(Cl)c(Cl)c2)NC(=O)CCCCCCCCCCCNC1=O
inactive: inhibition [4] | inhibition [5] | inhibition (Renin (Homo sapiens) [7])
4.2 nM: IC50 (Cathepsin D)
active: inhibition [1] | inhibition [2] | inhibition (Renin (Homo sapiens) [3]) | inhibition [6] | inhibition (Ixodes ricinus)

CC(C)[C@@H]1NC(=O)C[C@H](O)[C@H](CSCc2ccccc2)NC(=O)CCCCCCCCCCCNC1=O
active: inhibition [1] | inhibition [2] | inhibition (Renin (Homo sapiens) [3]) | inhibition [6] | inhibition (Ixodes ricinus)
20 nM: IC50 (Cathepsin D)
inactive: inhibition [4] | inhibition [5] | inhibition (Renin (Homo sapiens) [7])
